{"source": "patent US7524930B2", "about": "“Tumor antigen” (Green Peptide Co., Ltd, priority 2003, dated 2009)", "key": {"[1]": {"system": "peripheral blood mononuclear cells derived from a cancer patient", "format": "cell-based, human", "procedure": "Moreover, CTL-activating ability of these 19 peptides was directly examined in a ^51Cr-releasing test using toxicity to the target cells as an indicator. Specifically, the above-described PBMC, in which CTL was induced, was further recultured to proliferate in the presence of autologous APC, IL-2, and a corresponding peptide. At about day 21 to 28 after the start of reculturing, PBMC was collected and cytotoxicity thereof was tested again by measuring IFN-γ and by a 6-h ^51Cr-releasing test. PBMC of the cancer patient, which was stimulated by these peptides, lysed the HLA-A2^+ tumor cells. However, the autologous EBV-B cells and the T cells stimulated by PHA, both of which were derived from normal cells and were expressing HLA-A2, and the HLA-A2^− tumor cell RERF-LC-MS, were not lysed."}, "[2]": {"system": "Panc-1 cells and YPK-3 cells", "assay": "51Cr-releasing test of CTLs induced by KM-PA-2 peptides (Example 8)", "format": "cell-based, human", "conditions": "result in words; for Lysis of HLA-A2- tumor cell and normal cells by peptide-induced CTLs: PaCa-2, EBV-B cell line OKAB2, PHA-stimulated T cells; for Lysis of HLA-A2+ tumor cells by peptide-induced CTLs: Panc-1 cells and YPK-3 cells", "from_the_text": "The ability of the synthesized peptide to induce CTL from the peripheral blood mononuclear cells of the colon cancer patient, from whom OK-CTLp was obtained, was examined in the same way as that in Example 6. As a result, as shown in FIGS. 20A-20B, PBMC that was stimulated in vitro using any one of peptides P33 to P41 (SEQ ID NO:33 to SEQ ID NO:41) derived from KM-PA-2 and peptides P42 to P44 (SEQ ID NO:42 to SEQ ID NO:44) derived from KM-PA-4, produced IFN-γ through recognition of the T2 cells (left-hand figure of FIGS. 20A-20B,) which were pulsed with the peptide corresponding to that used for stimulation of the PBMC, and the Panc-1 cell (right-hand of FIGS. 20A-20B,) which is the HLA-A2^+ tumor cell. However, the PBMC reacted […] to the HLA-A2^− tumor cell. […] In addition, cytotoxicity of these CTLs induced by the peptides was directly confirmed by the ^51Cr-releasing test in the same way as that in Example 6. FIGS. 21A-21C show a representative example of the result. As shown in FIGS. 21A-21C, CTLs induced from PBMC of the cancer patient by P35, P39, or P40 lysed Panc-1 cells and YPK-3 cells, both of which are HLA-A2^+ tumor cells. However, the HLA-A2^− tumor cell PaCa-2, the EBV-B cell line OKAB2, and the T cells stimulated by PHA, was not lysed."}, "OK-CTLp or OK-CTL clone": {"system": "OK-CTLp or OK-CTL clone", "assay": "Recognition of peptide-pulsed T2 cells by OK-CTLp or OK-CTL clone (IFN-γ ELISA)", "format": "cell-based, human"}, "[3]": {"system": "human peripheral blood mononuclear cells (PBMC)", "assay": "CTL induction by peptide from PBMC of HLA-A2-positive cancer patients and healthy individuals, IFN-γ against peptide-pulsed T2 cells (Example 6)", "format": "cell-based", "conditions": "for INF-γ production: peptide-pulsed T2 cells", "procedure": "For six peptides (P21, P22, P24, P26, P30, and P32) with a purity of 95% or higher among peptides from P20 to P32 derived from gene 7 and CPSF among the tumor antigen peptide obtained in Example 4, the activity to induce CTL in vitro from human peripheral blood mononuclear cells (PBMC) was examined using IFN-γ production as an indicator. PBMC used was prepared from each peripheral blood of sixteen HLA-A2-positive cancer patients (4 patients with pancreatic cancer, seven patients with stomach cancer, and 5 patients with colon cancer) and six healthy individuals. Specifically, 1×10^5 PBMC was added to each well of 96-well U-bottom type microculture plate (Nunc Corp.) and incubated together with 10 μM of each of the above-described peptides in 200 μl culture medium. The culture medium consisted of 45% RPMI-1640, 45% AIM-V (Invitrogen Corp.,) 10% fetal calf serum (FCS), 100U/ml of human interleukin-2, and […] MEM nonessential amino acid solution (Invitrogen Corp.). At day 4 and day 7 after the start of culturing, half of the culture medium was removed and replaced with the above-described composition containing each corresponding peptide. At day 10 after the start of culturing, the cells were collected and washed, followed by reacting with T2 cells, which were pulsed with each corresponding peptide, to measure the amount of IFN-γ produced."}, "[4]": {"system": "Panc-1 pancreatic adenocarcinoma cell (HLA-A2)", "assay": "6-h 51Cr-releasing test of peptide-stimulated PBMC against Panc-1 (Example 6)", "format": "cell-based, human", "procedure": "Meanwhile, the above-described cells cultured for 10 days after stimulation by the peptide were further cultured for 10 days. The cytotoxicity of the obtained cells against the Panc-1 pancreatic adenocarcinoma cell (HLA-A2) was measured by the standard 6-h ^51Cr-releasing test in an E/T ratio of 10:1. The results obtained are presented as % specific lysis (table 7). Together with this step, cytotoxicity against SSTW-9 tumor cell as the HLA-A2^− tumor cell was measured to use as a background that was subtracted from the above-described result."}}, "note": "Peptide text beside a SMILES is read from it."}
{"compound": "CC[C@H](C)[C@H](NC(=O)[C@@H](NC(=O)[C@@H](N)CCCNC(=N)N)[C@@H](C)CC)C(=O)N[C@@H](Cc1ccc(O)cc1)C(=O)N[C@@H](CC(=O)O)C(=O)N[C@@H](CCCNC(=N)N)C(=O)N[C@@H](CCCCN)C(=O)N[C@@H](Cc1ccccc1)C(=O)N[C@@H](CC(C)C)C(=O)O", "note": "[Peptide P14] (H-RIIYDRKFL-OH)", "values": [{"measurement": "Cytotoxicity of peptide-stimulated PBMC to the autologous EBV-B cells", "setting": "[1]", "value": "showed cytotoxicity"}]}
{"compound": "CC[C@H](C)[C@H](N)C(=O)N[C@H](C(=O)N[C@@H](Cc1ccc(O)cc1)C(=O)N[C@@H](CC(=O)O)C(=O)N[C@@H](CCCNC(=N)N)C(=O)N[C@@H](CCCCN)C(=O)N[C@@H](Cc1ccccc1)C(=O)N[C@@H](CC(C)C)C(=O)N[C@@H](CCSC)C(=O)O)[C@@H](C)CC", "note": "[Peptide P15] (H-IIYDRKFLM-OH)", "values": [{"measurement": "Cytotoxicity of peptide-stimulated PBMC to the autologous EBV-B cells", "setting": "[1]", "value": "showed cytotoxicity"}]}
{"compound": "CC(C)C[C@H](NC(=O)CN)C(=O)N[C@@H](CC(C)C)C(=O)N[C@@H](Cc1ccccc1)C(=O)N[C@@H](CC(C)C)C(=O)N[C@@H](Cc1c[nH]cn1)C(=O)N[C@H](C(=O)N[C@@H](CCCNC(=N)N)C(=O)N[C@H](C(=O)O)[C@@H](C)O)[C@@H](C)O", "note": "[Peptide P17] (H-GLLFLHTRT-OH)", "values": [{"measurement": "Cytotoxicity of peptide-stimulated PBMC to the autologous EBV-B cells", "setting": "[1]", "value": "showed cytotoxicity"}]}
{"compound": "CC(C)C[C@H](NC(=O)[C@H](CCC(N)=O)NC(=O)[C@@H](N)CCC(N)=O)C(=O)N[C@@H](CS)C(=O)N[C@H](C(=O)N[C@@H](Cc1ccc(O)cc1)C(=O)N[C@@H](Cc1c[nH]c2ccccc12)C(=O)N[C@H](C(=O)N[C@H](C(=O)O)C(C)C)[C@@H](C)O)C(C)C", "note": "[Peptide P19] (H-QQLCVYWTV-OH)", "values": [{"measurement": "Cytotoxicity of peptide-stimulated PBMC to the autologous EBV-B cells", "setting": "[1]", "value": "showed high cytotoxicity"}]}
{"compound": "DLLQNPLLV (Designed peptide having an ability to activate HLA-A2 restricted Cytotoxic T lymphocytes) [Peptide P39, KM-PA-2 585-593]", "values": [{"measurement": "Lysis of HLA-A2- tumor cell and normal cells by peptide-induced CTLs", "setting": "[2]", "value": "not lysed"}, {"measurement": "Lysis of HLA-A2+ tumor cells by peptide-induced CTLs", "setting": "[2]", "value": "lysed"}]}
{"compound": "LLQNPLLVPV (Designed peptide having an ability to activate HLA-A2 restricted Cytotoxic T lymphocytes) [Peptide P40, KM-PA-2 586-595]", "values": [{"measurement": "Lysis of HLA-A2- tumor cell and normal cells by peptide-induced CTLs", "setting": "[2]", "value": "not lysed"}, {"measurement": "Lysis of HLA-A2+ tumor cells by peptide-induced CTLs", "setting": "[2]", "value": "lysed"}]}
{"compound": "QLGQGNLKV [Peptide P23]", "values": [{"measurement": "IFN-γ production", "setting": "OK-CTLp or OK-CTL clone; concentration of peptide 0.1 μM", "value": 6360, "unit": "pg/mL"}, {"measurement": "IFN-γ production", "setting": "OK-CTLp or OK-CTL clone; concentration of peptide 1 μM", "value": 0, "unit": "pg/mL"}, {"measurement": "IFN-γ production", "setting": "OK-CTLp or OK-CTL clone; concentration of peptide 10 μM", "value": 345, "unit": "pg/mL"}, {"measurement": "IFN-γ production", "setting": "OK-CTLp or OK-CTL clone; concentration of peptide 50 μM", "value": 160, "unit": "pg/mL"}, {"measurement": "INF-γ production", "setting": "[3]; PBMC of colon cancer patient 12", "value": 71, "unit": "pg/mL"}, {"measurement": "INF-γ production", "setting": "[3]; PBMC of colon cancer patient 13", "value": 138, "unit": "pg/mL"}, {"measurement": "INF-γ production", "setting": "[3]; PBMC of colon cancer patient 14", "value": 48, "unit": "pg/mL"}, {"measurement": "INF-γ production", "setting": "[3]; PBMC of colon cancer patient 15", "value": 14, "unit": "pg/mL"}, {"measurement": "INF-γ production", "setting": "[3]; PBMC of colon cancer patient 16", "value": 0, "unit": "pg/mL"}, {"measurement": "INF-γ production", "setting": "[3]; PBMC of healthy individual HD1", "value": 0, "unit": "pg/mL"}, {"measurement": "INF-γ production", "setting": "[3]; PBMC of healthy individual HD2", "value": 13, "unit": "pg/mL"}, {"measurement": "INF-γ production", "setting": "[3]; PBMC of healthy individual HD3", "value": 8, "unit": "pg/mL"}, {"measurement": "INF-γ production", "setting": "[3]; PBMC of healthy individual HD4", "value": 6, "unit": "pg/mL"}, {"measurement": "INF-γ production", "setting": "[3]; PBMC of healthy individual HD5", "value": 83, "unit": "pg/mL"}, {"measurement": "INF-γ production", "setting": "[3]; PBMC of healthy individual HD6", "value": 45, "unit": "pg/mL"}, {"measurement": "INF-γ production", "setting": "[3]; PBMC of pancreatic cancer patient 1", "value": 0, "unit": "pg/mL"}, {"measurement": "INF-γ production", "setting": "[3]; PBMC of pancreatic cancer patient 2", "value": 41, "unit": "pg/mL"}, {"measurement": "INF-γ production", "setting": "[3]; PBMC of pancreatic cancer patient 3", "value": 0, "unit": "pg/mL"}, {"measurement": "INF-γ production", "setting": "[3]; PBMC of pancreatic cancer patient 4", "value": 72, "unit": "pg/mL"}, {"measurement": "INF-γ production", "setting": "[3]; PBMC of stomach cancer patient 5", "value": 0, "unit": "pg/mL"}, {"measurement": "INF-γ production", "setting": "[3]; PBMC of stomach cancer patient 6", "value": 0, "unit": "pg/mL"}, {"measurement": "INF-γ production", "setting": "[3]; PBMC of stomach cancer patient 7", "value": 46, "unit": "pg/mL"}, {"measurement": "INF-γ production", "setting": "[3]; PBMC of stomach cancer patient 8", "value": 0, "unit": "pg/mL"}, {"measurement": "INF-γ production", "setting": "[3]; PBMC of stomach cancer patient 9", "value": 0, "unit": "pg/mL"}, {"measurement": "INF-γ production", "setting": "[3]; PBMC of stomach cancer patient 10", "value": 0, "unit": "pg/mL"}, {"measurement": "INF-γ production", "setting": "[3]; PBMC of stomach cancer patient 11", "value": 0, "unit": "pg/mL"}, {"measurement": "Patients in whom peptide-specific HLA-A2-restricted CTL were induced from PBMC", "setting": "[3]; sixteen HLA-A2-positive cancer patients", "value": 25, "unit": "%"}, {"measurement": "% specific lysis", "setting": "[4]; PBMC of colon cancer patient 12, Panc-1, E/T 10:1", "value": 18, "unit": "%"}, {"measurement": "% specific lysis", "setting": "[4]; PBMC of colon cancer patient 13, Panc-1, E/T 10:1", "value": 10, "unit": "%"}, {"measurement": "% specific lysis", "setting": "[4]; PBMC of pancreatic cancer patient 2, Panc-1, E/T 10:1, SSTW-9 background subtracted", "value": 53, "unit": "%"}, {"measurement": "% specific lysis", "setting": "[4]; PBMC of pancreatic cancer patient 4, Panc-1, E/T 10:1", "value": 10, "unit": "%"}, {"measurement": "% specific lysis", "setting": "[4]; PBMC of stomach cancer patient 7, Panc-1, E/T 10:1", "value": 10, "unit": "%"}]}
{"compound": "WAQEDPNAV (Designed peptide having an ability to activate HLA-A2 restricted Cytotoxic T lymphocytes) [Peptide P35, KM-PA-2 172-180]", "values": [{"measurement": "Lysis of HLA-A2- tumor cell and normal cells by peptide-induced CTLs", "setting": "[2]", "value": "not lysed"}, {"measurement": "Lysis of HLA-A2+ tumor cells by peptide-induced CTLs", "setting": "[2]", "value": "lysed"}]}
